Laboratory results as given in patent US9783505B2, “Substituted diaminopyrimidyl compounds, compositions thereof, and methods of treatment therewith” (Signal Pharmaceuticals, LLC, priority 2013, dated 2017).

Target: T1, His-PKC-theta (Homo sapiens, UniProt Q04759)
T1 construct: His; purchased Invitrogen
Assay: PKC-theta Assay (384-well time resolved fluorescence, IMAP TR-FRET)
Type: biochemical
Details: Table 2; read-out: Act. Level (IC50 in the PKC-theta Assay)
Procedure: PKC-theta Assay. A 384-well time resolved fluorescence assay was used to monitor PKC-theta activity. The PKC-theta assay was run in the following assay buffer: 50 mM HEPES pH 7.6, 10 mM MgCl2, 1 mM DTT, 0.01% Triton X-100, 0.01% BSA and 0.1 mM EDTA. To initiate the reaction, 200 nM of Fam-labeled S6-derived peptide (Molecular Devices) and 10 μM of ATP were mixed with 142 pM of His-PKC-theta (Invitrogen) for a total assay volume of 25 μL in each well. The assay was incubated at room temperature for 2 hours and terminated using a 60 μL/well mixture of Detection Binding Solution: 70% IMAP Progressive Binding Buffer A, 30% IMAP Progressive Binding Buffer B, 1:600 Progressive Binding Reagent, and 1:400 TR-FRET Tb Donor (Molecular Devices). The assay plates were then incubated overnight at room temperature and read on a Perkin-Elmer Envision Reader.

T1 sequence (Q04759 whole entry): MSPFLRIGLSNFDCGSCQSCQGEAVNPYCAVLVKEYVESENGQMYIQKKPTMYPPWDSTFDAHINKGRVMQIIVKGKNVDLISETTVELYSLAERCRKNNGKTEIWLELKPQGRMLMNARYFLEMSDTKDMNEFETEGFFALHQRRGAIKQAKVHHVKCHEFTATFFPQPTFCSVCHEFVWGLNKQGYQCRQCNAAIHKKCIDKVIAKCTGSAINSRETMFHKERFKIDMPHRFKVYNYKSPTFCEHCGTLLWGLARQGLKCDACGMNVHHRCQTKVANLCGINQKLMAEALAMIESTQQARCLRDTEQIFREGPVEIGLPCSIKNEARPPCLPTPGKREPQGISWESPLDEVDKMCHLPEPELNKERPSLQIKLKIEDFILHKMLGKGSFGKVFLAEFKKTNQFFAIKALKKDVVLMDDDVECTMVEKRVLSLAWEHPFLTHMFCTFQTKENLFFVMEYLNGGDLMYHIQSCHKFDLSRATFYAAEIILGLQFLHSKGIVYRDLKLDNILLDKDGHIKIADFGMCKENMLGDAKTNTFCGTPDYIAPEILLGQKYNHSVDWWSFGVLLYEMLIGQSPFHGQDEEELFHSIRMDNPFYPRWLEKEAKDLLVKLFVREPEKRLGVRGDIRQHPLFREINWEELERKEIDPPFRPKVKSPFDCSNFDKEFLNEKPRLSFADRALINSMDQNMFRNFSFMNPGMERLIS

| Structure (SMILES) | IC50 [nM] |
| --- | --- |
| N#Cc1cnc(NCCc2ccc(F)c(Cl)c2)nc1N[C@H]1CC[C@@H](C(N)=O)CC1 [Cmpd 90] | < 100 |
| N#Cc1cnc(NCCc2ccc(F)cc2)nc1N[C@H]1CC[C@@H](C(N)=O)CC1 [Cmpd 91] | 100 to 800 |
| CC1(C)C[C@H](Nc2nc(NCCc3ccc(F)cc3)ncc2C#N)CC[C@@H]1O [Cmpd 93] | 100 to 800 |
| COc1ccc(CCNc2ncc(C#N)c(N[C@@H]3CC[C@H](O)C(C)(C)C3)n2)cc1 [Cmpd 94] | 100 to 800 |
| COc1cc(CCNc2ncc(C#N)c(N[C@@H]3CC[C@H](O)C(C)(C)C3)n2)ccc1O [Cmpd 95] | 100 to 800 |
| COc1cccc(CCNc2ncc(C#N)c(N[C@@H]3CC[C@H](O)C(C)(C)C3)n2)c1OC [Cmpd 96] | 100 to 800 |
| CC1(C)C[C@H](Nc2nc(NCCc3ccccc3C(F)(F)F)ncc2C#N)CC[C@@H]1O [Cmpd 97] | 100 to 800 |
| CC1(C)C[C@H](Nc2nc(NCCc3ccc(C(F)(F)F)cc3)ncc2C#N)CC[C@@H]1O [Cmpd 99] | 100 to 800 |
| CC1(C)C[C@H](Nc2nc(NCCc3ccc(Cl)cc3Cl)ncc2C#N)CC[C@@H]1O [Cmpd 100] | 100 to 800 |
| CC1(C)C[C@H](Nc2nc(NCCc3ccc(Cl)c(Cl)c3)ncc2C#N)CC[C@@H]1O [Cmpd 101] | 100 to 800 |
| CC1(C)[C@@H](O)C[C@H]1Nc1nc(NCCc2ccc(F)cc2)ncc1C#N [Cmpd 102] | 100 to 800 |
| COc1ccc(CCNc2ncc(C#N)c(N[C@@H]3C[C@H](O)C3(C)C)n2)cc1 [Cmpd 103] | 100 to 800 |
| COc1cc(CCNc2ncc(C#N)c(N[C@@H]3C[C@H](O)C3(C)C)n2)ccc1O [Cmpd 104] | 2000 to 10000 |
| COc1cccc(CCNc2ncc(C#N)c(N[C@@H]3C[C@H](O)C3(C)C)n2)c1OC [Cmpd 105] | 800 to 2000 |
| CC1(C)[C@@H](O)C[C@H]1Nc1nc(NCCc2ccc(Cl)cc2Cl)ncc1C#N [Cmpd 106] | 100 to 800 |
| CC1(C)[C@@H](O)C[C@H]1Nc1nc(NCCc2ccc(Cl)c(Cl)c2)ncc1C#N [Cmpd 107] | 100 to 800 |
| CC1(C)[C@@H](O)C[C@H]1Nc1nc(NCCc2ccccc2O)ncc1C#N [Cmpd 108] | 800 to 2000 |
| COCCOc1ccc(CCNc2ncc(C#N)c(N[C@@H]3C[C@H](O)C3(C)C)n2)cc1 [Cmpd 109] | 100 to 800 |
| CC1(C)[C@@H](O)C[C@H]1Nc1nc(NCCc2ccc(-c3ccccc3)cc2)ncc1C#N [Cmpd 111] | 100 to 800 |
| CC1(C)[C@@H](O)C[C@H]1Nc1nc(NCCc2ccc(S(N)(=O)=O)cc2)ncc1C#N [Cmpd 113] | 100 to 800 |
| CC1(C)[C@@H](O)C[C@H]1Nc1nc(NCCc2ccc(N3CCCCC3)cc2)ncc1C#N [Cmpd 114] | 800 to 2000 |

| Structure (SMILES) | IC50 [nM] |
| --- | --- |
| CC1(C)[C@@H](O)C[C@H]1Nc1nc(NCCc2ccc(OC3CCCC3)cc2)ncc1C#N [Cmpd 118] | 800 to 2000 |
| CC1(C)[C@@H](O)C[C@H]1Nc1nc(NCCc2ccc(Oc3ccccc3)cc2)ncc1C#N [Cmpd 119] | 100 to 800 |
| CC1(C)[C@@H](O)C[C@H]1Nc1nc(NCCc2ccc(-c3ccc(F)cc3)cc2)ncc1C#N [Cmpd 120] | 100 to 800 |
| Cc1cc(C)n(-c2ccc(CCNc3ncc(C#N)c(N[C@@H]4C[C@H](O)C4(C)C)n3)cc2)n1 [Cmpd 121] | 800 to 2000 |
| CC1(C)[C@@H](O)C[C@H]1Nc1nc(NCCc2ccc(CN3CCCC3=O)cc2)ncc1C#N [Cmpd 123] | 800 to 2000 |
| Cc1ncc(-c2ccc(CCNc3ncc(C#N)c(N[C@@H]4C[C@H](O)C4(C)C)n3)cc2)s1 [Cmpd 124] | 100 to 800 |
| CC1(C)[C@@H](O)C[C@H]1Nc1nc(NCCc2cc(C(F)(F)F)cc(C(F)(F)F)c2)ncc1C#N [Cmpd 125] | 100 to 800 |
| CC1(C)[C@@H](O)C[C@H]1Nc1nc(NCCc2cccc3ccccc23)ncc1C#N [Cmpd 128] | 100 to 800 |
| CN(C)c1ccc(CCNc2ncc(C#N)c(N[C@@H]3CC[C@H](O)C(C)(C)C3)n2)cc1 [Cmpd 129] | 100 to 800 |
| CC(=O)Nc1ccc(CCNc2ncc(C#N)c(N[C@@H]3CC[C@H](O)C(C)(C)C3)n2)cc1 [Cmpd 130] | 100 to 800 |
| CNC(=O)c1cccc(CCNc2ncc(C#N)c(N[C@@H]3CC[C@H](O)C(C)(C)C3)n2)c1 [Cmpd 131] | 800 to 2000 |
| CC1(C)C[C@H](Nc2nc(NCCc3ccccc3OC(F)F)ncc2C#N)CC[C@@H]1O [Cmpd 132] | 100 to 800 |
| CN(C)c1ccc(CCNc2ncc(C#N)c(N[C@@H]3C[C@H](O)C3(C)C)n2)cc1 [Cmpd 133] | 100 to 800 |
| CNC(=O)c1cccc(CCNc2ncc(C#N)c(N[C@@H]3C[C@H](O)C3(C)C)n2)c1 [Cmpd 135] | 800 to 2000 |
| CC1(C)[C@@H](O)C[C@H]1Nc1nc(NCCc2ccccc2OC(F)F)ncc1C#N [Cmpd 136] | 100 to 800 |
| COc1cc(CCNc2ncc(C#N)c(N[C@@H]3CC[C@H](O)C(C)(C)C3)n2)ccc1C#N [Cmpd 137] | 100 to 800 |
| CC1(C)C[C@H](Nc2nc(NCCc3ccc(C#N)c(Cl)c3)ncc2C#N)CC[C@@H]1O [Cmpd 139] | 100 to 800 |
| CC1(C)C[C@H](Nc2nc(NCCc3ccc(C#N)c(C(F)(F)F)c3)ncc2C#N)CC[C@@H]1O [Cmpd 140] | 100 to 800 |
| CC1(C)[C@@H](O)C[C@H]1Nc1nc(NCCc2ccc(C#N)c(C(F)(F)F)c2)ncc1C#N [Cmpd 141] | 100 to 800 |
| CC1(C)[C@@H](O)C[C@H]1Nc1nc(NCCc2ccc(C#N)c(Cl)c2)ncc1C#N [Cmpd 142] | 100 to 800 |

Same assay, conditions: read-out: Act. Level (IC50 in the PKC-theta Assay)

| Structure (SMILES) | IC50 [nM] |
| --- | --- |
| N#Cc1cnc(NCc2cnccc2C(F)(F)F)nc1NC1CC(O)C1 (stereo not drawn) [Cmpd 90] | < 100 |
| CC1(C)[C@H](CO)C[C@@H]1Nc1nc(NCc2cnccc2C(F)(F)F)ncc1C(F)(F)F [Cmpd 91] | 100 to 800 |
| CC1(C)[C@H](O)C[C@H]1Nc1nc(NCc2cncnc2-c2ccc(F)cc2)ncc1C#N [Cmpd 93] | 100 to 800 |
| O[C@H]1C[C@H](Nc2nc(NCc3cnccc3C(F)(F)F)ncc2C(F)(F)F)C1 [Cmpd 94] | 100 to 800 |
| O[C@H]1C[C@@H](Nc2nc(NCc3cnccc3C(F)(F)F)ncc2C(F)(F)F)C1 [Cmpd 95] | 100 to 800 |
| N#Cc1cnc(NCc2cncnc2C(F)(F)F)nc1N[C@H]1CC[C@@H](O)CC1 [Cmpd 96] | 100 to 800 |
| CC1(C)[C@H](O)C[C@@H]1Nc1nc(NCc2cncnc2-c2ccc(F)cc2)ncc1C(F)(F)F [Cmpd 97] | 100 to 800 |
| CC(F)(F)COc1ncncc1CNc1ncc(C#N)c(N[C@H]2C[C@@H](O)C2(C)C)n1 [Cmpd 99] | 100 to 800 |
| CC(C)(O)[C@H]1CC[C@H](Nc2nc(NCc3cnccc3C(F)(F)F)ncc2C#N)CC1 [Cmpd 101] | 100 to 800 |
| COC1CC(Nc2nc(NCc3cnccc3C(F)(F)F)ncc2C(F)(F)F)C1(C)C (stereo not drawn) [Cmpd 102] | 100 to 800 |
| COC1CC(Nc2nc(NCc3cnccc3C(F)(F)F)ncc2C(F)(F)F)C1(C)C (stereo not drawn) [Cmpd 103] | 100 to 800 |
| CC1(C)[C@H](O)C[C@H]1Nc1nc(NCc2c[n+]([O-])ccc2C(F)(F)F)ncc1C(F)(F)F [Cmpd 105] | 100 to 800 |
| C[C@]1(O)CC[C@@H](Nc2nc(NCc3cncnc3C(F)(F)F)ncc2C#N)CC1 [Cmpd 106] | 100 to 800 |
| CC1(C)C(O)C[C@@H]1Nc1nc(NCc2cncnc2OCCC(F)(F)F)ncc1C#N (stereo partly drawn) [Cmpd 107] | 100 to 800 |
| N#Cc1cnc(NCc2cnccc2C(F)(F)F)nc1N[C@H]1C[C@H](O)C1 [Cmpd 108] | 100 to 800 |
| CC(C)(F)c1ncncc1CNc1ncc(C#N)c(N[C@H]2C[C@@H](CO)C2(C)C)n1 [Cmpd 109] | 100 to 800 |
| CC1(C)[C@@H](Nc2nc(NCc3cncnc3-c3ccc(F)cc3)ncc2C#N)C[C@@H]1O [Cmpd 111] | 100 to 800 |

| Structure (SMILES) | IC50 [nM] |
| --- | --- |
| N#Cc1cnc(NCc2ccccc2Oc2ccccc2)nc1N[C@H]1CC[C@@H](O)CC1 [Cmpd 118] | 100 to 800 |
| CC(C)c1ncncc1CNc1ncc(C#N)c(N[C@H]2C[C@@H](O)C2(C)C)n1 [Cmpd 119] | 100 to 800 |
| CC1(C)[C@H](O)C[C@@H]1Nc1nc(NCc2cnccc2C(F)(F)F)ncc1C(F)(F)F [Cmpd 120] | 100 to 800 |
| CC(F)(F)COc1ncncc1CNc1ncc(C#N)c(N[C@H]2C[C@H](O)C2(C)C)n1 [Cmpd 121] | 100 to 800 |
| CCc1ncncc1CNc1ncc(C#N)c(N[C@H]2C[C@@H](O)C2(C)C)n1 [Cmpd 123] | 100 to 800 |
| N#Cc1cnc(NCc2cnccc2C(F)(F)F)nc1NC12CC3CC(CC(O)(C3)C1)C2 [Cmpd 124] | 800 to 2000 |
| CC1(C)[C@H](O)C[C@H]1Nc1nc(NCc2cncnc2OCCC(F)(F)F)ncc1C(F)(F)F [Cmpd 125] | < 100 |
| CCc1ncncc1CNc1ncc(C#N)c(N[C@@H]2C[C@@H](O)C2(C)C)n1 [Cmpd 128] | 100 to 800 |
| CC(C)(CO)CNc1nc(NCc2cnccc2C(F)(F)F)ncc1C#N [Cmpd 129] | 100 to 800 |
| CC1(C)C(O)C(C)(C)C1Nc1nc(NCc2cnccc2C(F)(F)F)ncc1C#N (stereo not drawn) [Cmpd 130] | 100 to 800 |
| CC1(C)[C@@H](CO)C[C@@H]1Nc1nc(NCc2cnccc2C(F)(F)F)ncc1C(F)(F)F [Cmpd 131] | 100 to 800 |
| CC1(C)[C@H](O)C[C@@H]1Nc1nc(NCc2cncnc2-c2ccc(F)cc2)ncc1C#N [Cmpd 133] | 100 to 800 |
| CCc1ncncc1CNc1ncc(C#N)c(NC2CC(C)(O)C2(C)C)n1 (stereo not drawn) [Cmpd 135] | 100 to 800 |
| CC1(C)[C@H](O)C[C@@H]1Nc1nc(NCc2c[n+]([O-])ccc2C(F)(F)F)ncc1C(F)(F)F [Cmpd 136] | 100 to 800 |
| CC1(C)[C@@H](Nc2nc(NCc3c[n+]([O-])ccc3C(F)(F)F)ncc2C(F)(F)F)C[C@@H]1O [Cmpd 139] | 100 to 800 |
| CC(C)c1ncncc1CNc1ncc(C#N)c(N[C@H]2C[C@@H](CO)C2(C)C)n1 [Cmpd 140] | 100 to 800 |
| CC1(C)[C@H](CO)C[C@@H]1Nc1nc(NCc2c[n+]([O-])ccc2C(F)(F)F)ncc1C(F)(F)F [Cmpd 141] | 800 to 2000 |
